Results reported in article PMC7385036, “An allosteric pocket for inhibition of bacterial Enzyme I identified by NMR-based fragment screening” (Journal of Structural Biology: X, 2020).
Like-named read-outs stand apart in the source and are kept apart here.

Legend:
EIC domain of EI = biological target: T1, EIC domain of EI (Escherichia coli, UniProt P08839); test: CSP-based NMR titration experiments (equilibrium dissociation constant); assay type: binding, E. coli
T1 construct: made in house
Description: The affinity of the newly discovered EI ligands was investigated by acquiring CSP-based, NMR titration experiments on ^15N-labeled EIN or EIC at increasing concentration of small molecule ([Fielding, 2007]). The data were fit using a standard equilibrium dissociation equation ([Granot, 1983]) to obtain the equilibrium dissociation constant (KD) per each analyzed complex (Fig. 2d). This analysis identified six small molecules that bind the EIC domain of EI with low mM affinity (Fig. 2e).
NMR titration experiments were measured at 37 °C in 20 mM Tris (pH 7.4), 100 mM NaCl, 4 mM MgCl2, 2 mM DTT, and 5% D2O. The protein concentration was 400 µM and the concentration of small molecule was varied between 0 and 8 mM. Spectra were processed using NMRPipe ([Delaglio et al., 1995]) and analyzed using the program SPARKY (http://www.cgl.ucsf.edu/home/sparky). Assignment of the ^1H-^15N cross-peaks for the EIC-small molecule complexes was performed by titration experiments, following the change in ^1H-^15N cross-peak positions as a function of added small molecule. Weighted combined ^1H/^15N chemical shift perturbations (ΔH/N) resulting from the addition of increasing concentrations of small molecule were calculated using the following equation ([Mulder et al., 1999]):(1) ΔH/N=ΔδHWH^2+ΔδNWN^2 where WH (=1) and WN (=0.154) are weighting factor for the ^1H and ^15N amide shifts, respectively. ΔδH and ΔδN are the ^1H and ^15N chemical shift differences in ppm, respectively, between free and bound states. The equilibrium dissociation constants (KD) for the EIC-inhibitor complexes were obtained by fitting the changes in ΔH/N with increasing concentration of small molecule using the equation ([Granot, 1983]):(2) ΔH/N=Δ0P+L+KD-P+L-KD^2-4PL/2P where Δ0 is the weighted combined ^1H/^15N chemical shift at saturation, and P and L are the protein and small molecule concentrations, respectively.

full-length EI [1] = biological target: T2, full-length EI (Escherichia coli, UniProt P08839); test: Enzyme kinetic assay of phosphoryl transfer from PEP to HPr by 1H-15N SOFAST NMR; assay type: biochemical, E. coli; design: phosphoryl transfer from PEP to HPr catalyzed by full-length EI; made in house; conditions: 0.0, 1.5 and 6.0 mM compound, 25 °C, pH 7.4
Description: In such graphs, the y and x intercepts are equivalent to the inverse of the maximum velocity (1/Vmax) and the negative inverse of the Michaelis constant (−1/Km), respectively.
Vmax,0 (the value of Vmax in the absence of inhibitor) was optimized to maximize the agreement between experimental and simulated data (Fig. 3c).
Enzyme kinetic assay we run by measuring the rate of phosphoryl transfer from PEP to HPr catalyzed by full-length EI by using ^1H-^15N SOFAST NMR spectra as described previously ([Nguyen et al., 2018]). Reaction were run at 25 °C in 20 mM Tris (pH 7.4), 100 mM NaCl, 4 mM MgCl2, 2 mM DTT, and 5% D2O. The assay was performed in triplicate. The enzyme kinetic data measured at different concentration of inhibitor were fit using a completive or mixed inhibition model:(3) Competitiveinhibition-v0=Vmax,0PEP/Km,01+I/KI,S+PEP (4) Mixedinhibition-v0=Vmax,0PEP/Km,01+I/KI,S+PEP1+I/KI,I where v0 is the initial velocity of the enzymatic reaction, [PEP] and [I] are the concentration of substrate and inhibitor, respectively, KI,s is the equilibrium dissociation constant for the enzyme-inhibitor complex, KI,I is the dissociation constant for the interaction between the inhibitor and the enzyme-PEP complex, and Km,0 and Vmax,0 are the Michaelis constant and maximum velocity in the absence of inhibitors, respectively. The seven measured datasets (in the absence of inhibitor, and in the presence of two concentrations of each inhibitor) were fit globally.

full-length EI [2] = biological target: T2, full-length EI; conditions: read-out: Km,0 (Km in the absence of inhibitor); PEP as substrate of EI; kept fixed to its literature value, no reference given; cited from earlier work
[3] = 15N-labeled EIC 400 µM, small molecule 0-8 mM, 37 °C, pH 7.4, read-out: KD

Compound `NCc1ccc(Br)s1` [compound 4] has a Kd (EIC domain of EI; [3]) of 2.9 mM.
`CC(C)Oc1ccc(Cl)cc1CN` [compound 5] gave a Kd (EIC domain of EI; [3]) of 4.3 mM.
In the case of `CNCc1[nH]c2ccccc2c1C` [compound 2], the Kd (EIC domain of EI; [3]) is reported as 2.6 mM and the “Type of inhibition of EI (Lineweaver-Burk analysis)” value (shortened to “Type of inhibition of EI”) (full-length EI [1]) is reported as “competitive inhibitors”.
Work on `CC(CN)Nc1ccc([N+](=O)[O-])cc1` (stereo not drawn) [compound 6] yielded a Kd (EIC domain of EI; [3]) of 4.1 mM.
For `C=C(OP(=O)(O)O)C(=O)O` [PEP, phosphoenolpyruvate], the Km (full-length EI [2]) is listed as 350 µM.
In the case of `NCc1ccc(-c2ccc(F)cc2)o1` [compound 1], the Kd (EIC domain of EI; [3]) is reported as 2.5 mM and the “Type of inhibition of EI” value (full-length EI [1]) is reported as “competitive inhibitors”.
`Cc1nn(Cc2ccc(F)cc2)c(C)c1N` [compound 3] showed a Kd (EIC domain of EI; [3]) of 3.2 mM, a Kd (EIC domain of EI; EIC, residues in the allosteric binding pocket fitted separately, read-out: KD, CSP titration data fitted for the residues in the allosteric binding pocket) of 3.2 ± 0.2 mM and a Kd (EIC domain of EI; EIC, residues in the β3α3 loop fitted separately, read-out: KD, CSP titration data fitted for the residues in the β3α3 loop) of 3.5 ± 0.3 mM. For the same compound, the “Type of inhibition of EI” value (full-length EI [1]) was “mixed inhibitor”.
